Results reported in paper PMC5501099 (Malaria Journal, 2017).

How the values were obtained:
[1] = design: method as in earlier work; details: humans, n = 4; cited from earlier work
[2] = Population pharmacokinetic model of ivermectin in healthy Thai volunteers; assay type: in vivo, human; details: single oral 200 µg/kg
Protocol: The first-order conditional estimation method with interaction was used throughout model development. Model diagnostics and automation were performed using Xpose version 4.0 [25], Pirana and Pearl-speaks-NONMEM (PsN; version 3.6.0). The objective function value (OFV; calculated by NONMEM as proportional to −2 × loglikelihood of data) was used to discriminate between hierarchical models. A difference between two models (ΔOFV) of >3.84 and >10.83 were considered statistically significant at a P value of <0.05 and <0.001, respectively. Models were assessed using standard goodness-of-fit and simulation-based diagnostics (i.e. numerical and visual predictive checks using 2000 simulations). The robustness of the final model was evaluated by bootstrapping (n = 1000).
Different disposition models (one-, two- and three-compartment models) and absorption models (first-order and transit models) were evaluated to describe the pharmacokinetic structural model of ivermectin. Pharmacokinetic parameters were assumed to be log-normally distributed and inter-individual variability was implemented as exponential functions. […] The influence of other individual covariates including gender, age, haemoglobin, haematocrit, total bilirubin, direct bilirubin, alkaline phosphatase, aspartate aminotransferase, and alanine aminotransferase, serum creatinine, blood urea nitrogen, and albumin level were investigated using a stepwise covariate approach (P value <0.05 and <0.001 for forward and backward addition and deletion, respectively).
There were no observations reported to be below the lower limit of quantification. […] A flexible transit absorption model (n = 2) improved the model fit substantially compared to the first-order absorption (∆OFV = −378). […] Implementing body weight as a covariate in the model also allowed for translation and interpretation to other study populations.

Plasmodium vivax = experiment: Effect of ivermectin on Plasmodium vivax sporogony in Anopheles minimus; assay type: in vivo; details: An. minimus
Protocol: Mosquitoes reared in Bangkok were transported to a field laboratory at the Mae Sot Malaria Medical Clinic in Mae Sot, Tak Province. Plasmodium vivax-infected blood was collected from malaria-infected patients reporting to malaria clinics operated by the Thailand Ministry of Public Health in Tak Province (protocol WRAIR#1949A). Patient plasma was removed and replaced by centrifuging blood samples at 3000 rpm for 5 min, plasma removed and blood washed with RPMI twice, and malaria-naïve AB+ serum was added at a 50:50 ratio [30]. One millilitre of blood was fed to each group of 100 mosquitoes in 0.5-l cardboard containers and unfed mosquitoes were removed. Mosquitoes were maintained on 10% sucrose ad libitum at the Mae Sot field insectary (25 ± 1 °C and 70 ± 10% relative humidity, light 12 h:12 h dark photoperiod). Once infected with P. vivax, blood-fed mosquitoes were securely transported back to Bangkok and maintained in a separate insectary (25 ± 1 °C and 70 ± 10% relative humidity, light 12 h:12 h dark photoperiod).
Unfed mosquitoes were removed from the feeding containers after each blood meal. Mosquitoes from the DPI 0 and DPI −3 feeding schedules were dissected 7 days post parasite ingestion to enumerate oocysts. Midguts were dissected with minuten pins into saline on a microscope slide and stained with 0.4% mercurochrome and viewed at 40× magnification with a compound microscope to determine oocyst prevalence and intensity. Approximately 25 mosquitoes were dissected from each control and treatment group at each dissection time point. Dissectors were blinded to treatment groups. Due to lack of initial mosquito blood feeding and mosquitoes lost to experimental mortality and oocyst dissections at day 7 post parasite feeding, not enough mosquitoes remained at day 14 post parasite feeding to determine sporozoite prevalence for the DPI −3 and 0 experiments. Mosquitoes from the DPI 6 and 9 experiments were dissected 14 days post parasite ingestion to determine sporozoite prevalence. […]
A non-linear mixed effects model with probit analysis was used to calculate LC50, LC25 and LC5 values with Statistical Analysis Software (SAS Institute Inc, Cary, NC, USA) as described previously. Hazard ratios for mosquito mortality at day 7 post blood meal were calculated using Poisson regression analysis with STATA version 12.1 (StataCorp LLC, College Station, TX, USA). […] To determine if P. vivax infection altered mosquito survivorship post-ivermectin ingestion survival data were analysed by the Mantel–Cox method. The Fishers Exact, Mann–Whitney U, and survival analysis data were analysed with Prism 7 (GraphPad Software Inc, San Diego, CA, USA).

Anopheles dirus = experiment: Ivermectin lethal concentration / survivorship, membrane blood feeding; assay type: in vivo; details: An. dirus
Protocol: Powdered formulation of ivermectin compound was obtained from Sigma-Aldrich (St. Louis, USA). […] Control blood meals consisted of previously frozen DMSO diluted in PBS to match the ratio of DMSO and PBS fed to mosquitoes in the ivermectin-containing blood meals.
After blood feeding via a membrane feeder, unfed mosquitoes were removed and discarded. Blood-fed mosquitoes were held in 3.5-l plastic containers with access to 10% sucrose and kept in an incubator at 25 ± 1 °C and 70 ± 10% relative humidity, on a 12 h light:12 h dark photoperiod. Mosquito survivorship was monitored for 7 days, every 24 h dead mosquitoes were removed and recorded, and on day 7 all remaining mosquitoes were frozen and counted as alive.
A non-linear mixed effects model with probit analysis was used to calculate LC50, LC25 and LC5 values with Statistical Analysis Software (SAS Institute Inc, Cary, NC, USA) as described previously. Hazard ratios for mosquito mortality at day 7 post blood meal were calculated using Poisson regression analysis with STATA version 12.1 (StataCorp LLC, College Station, TX, USA). Oocyst and sporozoite prevalence (i.e. proportion of infected mosquitoes) was compared by Fishers Exact test. Oocyst intensity (i.e. number of oocysts per infected mosquito) was compared by the Mann–Whitney U test. To determine if P. vivax infection altered mosquito survivorship post-ivermectin ingestion survival data were analysed by the Mantel–Cox method. The Fishers Exact, Mann–Whitney U, and survival analysis data were analysed with Prism 7 (GraphPad Software Inc, San Diego, CA, USA).

[3] = 23 healthy Thai volunteers, plasma data of trial [24]
[4] = post hoc estimate, median (interquartile range)

**Q.** With ivermectin as the substance, how does the Parent compound half-life [1] read?
**A.** 11.8 h

**Q.** And the “MTT mean transit absorption time, population estimate (%RSE)” value [2, 3]?
**A.** 0.496 (17.1) h

**Q.** What about the “ka absorption rate constant, population estimate (%RSE)” value [2, 3] of the same substance?
**A.** 0.317 (3.97) h^−1

**Q.** And the “IIV of CL/F (%RSE)” value ([2]; healthy Thai volunteers)?
**A.** 23.1 (25.2) %CV

**Q.** What about the “IIV of F relative bioavailability (%RSE)” value ([2]; healthy Thai volunteers) of the same substance?
**A.** 10.7 (42.9) %CV

**Q.** And the “IIV of MTT (%RSE)” value ([2]; healthy Thai volunteers)?
**A.** 56.1 (36.2) %CV

**Q.** What about the “IIV of VP/F (%RSE)” value ([2]; healthy Thai volunteers) of the same substance?
**A.** 22.8 (36.0) %CV

**Q.** What about the “CL/F apparent oral elimination clearance, population estimate (%RSE)” value ([2]; healthy Thai volunteers, allometric scaling centred on 55 kg) of the same substance?
**A.** 9.02 (5.49) l/h

**Q.** And the “Q/F apparent inter-compartmental clearance, population estimate (%RSE)” value ([2]; healthy Thai volunteers, centred on 55 kg)?
**A.** 16.2 (5.34) l/h

**Q.** What about the “AUC0–168” value [2, 4] of the same substance?
**A.** 1331 (919–1406) ng × h/ml

**Q.** And the Cmax [2, 4]?
**A.** 45.7 (40.3–46.9) ng/ml

**Q.** And the Terminal half-life [2, 4]?
**A.** 25.0 (23.7–29.5) h

**Q.** What about the Tmax [2, 4] of the same substance?
**A.** 4.76 (4.67–5.04) h

**Q.** And the “P. vivax oocyst prevalence reduced by” value (Plasmodium vivax; ivermectin LC5 (6.7 ng/ml) co-ingested at DPI 0)?
**A.** 31.3%

**Q.** What about the “P. vivax mean oocyst intensity reduced by” value (Plasmodium vivax; ivermectin LC5 at DPI 0) of the same substance?
**A.** 35.3%

**Q.** And the “P. vivax oocyst prevalence reduced by” value (Plasmodium vivax; ivermectin LC25 (11.3 ng/ml) co-ingested at DPI 0)?
**A.** 58.8%

**Q.** And the “P. vivax mean oocyst intensity reduced by” value (Plasmodium vivax; ivermectin LC25 at DPI 0, P = 0.1018)?
**A.** 28.5%

**Q.** What about the LC5 (Anopheles dirus; 7 days post blood meal) of the same substance?
**A.** 22.1 ng/mL

**Q.** What about the LC25 (Anopheles dirus; 7 days post blood meal) of the same substance?
**A.** 38.1 ng/mL

**Q.** And the LC50 (Anopheles dirus; 7 days post blood meal)?
**A.** 55.6 ng/mL

**Q.** What about the “IRR (Incidence Rate Ratio of mortality at day 7, treatment group divided by control group)” value (Anopheles dirus; ivermectin imbibed 20 ng/ml) of the same substance?
**A.** 2.8

**Q.** And the “IRR (Incidence Rate Ratio of mortality at day 7, treatment group divided by control group)” value (Anopheles dirus; ivermectin imbibed 25 ng/ml)?
**A.** 8.2

**Q.** What about the “IRR (Incidence Rate Ratio of mortality at day 7, treatment group divided by control group)” value (Anopheles dirus; ivermectin imbibed 30 ng/ml) of the same substance?
**A.** 4.7

**Q.** What about the “IRR (Incidence Rate Ratio of mortality at day 7, treatment group divided by control group)” value (Anopheles dirus; ivermectin imbibed 35 ng/ml) of the same substance?
**A.** 24.4

**Q.** And the “IRR (Incidence Rate Ratio of mortality at day 7, treatment group divided by control group)” value (Anopheles dirus; ivermectin imbibed 40 ng/ml)?
**A.** 19.1

**Q.** What about the “IRR (Incidence Rate Ratio of mortality at day 7, treatment group divided by control group)” value (Anopheles dirus; ivermectin imbibed 45 ng/ml) of the same substance?
**A.** 21.4

**Q.** And the “IRR (Incidence Rate Ratio of mortality at day 7, treatment group divided by control group)” value (Anopheles dirus; ivermectin imbibed 50 ng/ml)?
**A.** 32.3

**Q.** What about the “IRR (Incidence Rate Ratio of mortality at day 7, treatment group divided by control group)” value (Anopheles dirus; ivermectin imbibed 55 ng/ml) of the same substance?
**A.** 29.6

**Q.** What about the “IRR (Incidence Rate Ratio of mortality at day 7, treatment group divided by control group)” value (Anopheles dirus; ivermectin imbibed 60 ng/ml) of the same substance?
**A.** 36.1

**Q.** And the “IRR (Incidence Rate Ratio of mortality at day 7, treatment group divided by control group)” value (Anopheles dirus; ivermectin imbibed 65 ng/ml)?
**A.** 44.5

**Q.** And the “IRR (Incidence Rate Ratio of mortality at day 7, treatment group divided by control group)” value (Anopheles dirus; ivermectin imbibed 70 ng/ml)?
**A.** 42.5

**Q.** And the “IRR (Incidence Rate Ratio of mortality at day 7, treatment group divided by control group)” value (Anopheles dirus; ivermectin imbibed 80 ng/ml)?
**A.** 46.8

**Q.** What about the “IRR (Incidence Rate Ratio of mortality at day 7, treatment group divided by control group)” value (Anopheles dirus; ivermectin imbibed 85 ng/ml) of the same substance?
**A.** 55.7

**Q.** And the “IRR (Incidence Rate Ratio of mortality at day 7, treatment group divided by control group)” value (Anopheles dirus; ivermectin imbibed 95 ng/ml)?
**A.** 58.1

**Q.** What about the “IRR (Incidence Rate Ratio of mortality at day 7, treatment group divided by control group)” value (Anopheles dirus; ivermectin imbibed 100 ng/ml) of the same substance?
**A.** 64.3
